Where two headings read alike, the source gives them in different places.
Tests used:
[1] = assay type: in vivo, CB17 SCID/SCID female mice; conditions: day 34; i.p. 3.5 mg/kg once every 3 days for fifteen days
Procedure: C33A cells were transplanted subcutaneously into the flank of female CB17 SCID/SCID mice. Each mouse was inoculated with a suspension of 2×10^6 tumor cells per 100 μL on day zero. The following six treatment groups of ten mice each were used: (a) a negative control group treated with intravenous (i.v.) injection of vehicle, (b) a negative control group treated with intraperitoneal (i.p.) injection of vehicle, (c) a positive control group treated with i.p. injection of Cisplatin, (d) a group treated with i.v. injection of a Compound 50, (e) a group treated with i.p. injection of Compound 50, and (f) a group treated with subcutaneous (s.c.) injection of Compound 50.
Treatment started on day thirteen after C33A cells transplantation for Compound 50 treated groups and on day fourteen for Cisplatin treated group. Compound 50 was administered i.v., i.p., and s.c. once daily for five consecutive days at a dose of 10, 15 and 30 mg/kg, respectively. Compound 50 was prepared as a working solution of 1.5 mg/mL in a vehicle solution of 20% Cremaphor EL (Sigma, St. Louis, Mo., USA), 10% Ethanol and 5% Dextrose (Abbot Laboratories, QC, Canada). The negative control groups were treated with vehicle alone. The positive control group was treated once every 3 days for fifteen days at a dose of 3.5 mg/kg. Cisplatin was formulated in PBS on each day of the injection and was administered i.p.
The mice were weighed and the tumors measured on day 13 and every 2 to 3 days after treatment commenced. Observations continued for 36 days after initial tumor implantation. The changes in body weight and in the calculated tumor volume were plotted (FIGS. 4 and 5). Statistical analysis was performed using GraphPad Prism (GraphPad Software Inc., San Diego, Calif.). Two-way ANOVA was used to determine how the treatment affected tumor growth over time. Following the two-way ANOVA, post-tests were performed using the Benferroni method to determine the statistical difference between the mean tumor-size of the two groups being compared on every day that the tumors were measured. […]

[2] = tested on: H1299 and C33A cancer cells versus HMEC and MRC-5 normal cells; conditions: 72 h; 1.6 μM Compound 48, 10 μM etoposide, 100 nM staurosporine
Procedure: H1299 non-small cell lung carcinoma cells, C33A cervical carcinoma cells, Mrc-5 normal lung fibroblasts (American Type Culture Collection, Manassas, Va. USA) and HMEC normal mammary epithelial cells (Clonetics San Diego, Calif., USA) were cultured in RPMI 1640 media supplemented with 10% fetal calf serum (Sigma-Aldrich Inc., St. Louis, Mo. USA). The four cells lines were plated in 96-well microtiter plates (PerkinElmer Life Sciences Inc, Boston, Mass. USA) at a confluency that allowed them to reach confluence after 4 days of growth. One day after plating, the cells were treated either with 10 μM etoposide, 100 nM staurosporine or 1.6 μM of Compound 48. Stock solutions of each compound were prepared in dimethyl sulfoxide (Sigma-Aldrich Inc., St. Louis, Mo. USA), diluted in media then added to the cells. The total dimethyl sulfoxide on the cells was 1%. After 3 days of incubation, the ATP levels in the cells were quantified using the luminescent ViaLight detection system (Bio-Whittaker, Md., USA). The results were plotted relative to untreated control cells, which were set at 100.

[3] = tested on: Hep-3B human hepatocellular carcinoma; assay: Cell viability, cellular ATP levels (Vialight HS); assay type: cell-based; conditions: Hep3B, Table 5, liver, tumor, ATP levels 72 h post-treatment
Excerpt: (§1) The following cell lines were used: A549 human non-small cell lung carcinoma; C33A human cervical carcinoma; H1299 human non-small cell lung carcinoma; Hep-3B human hepatocellular carcinoma; MIA-Paca-2 human pancreatic carcinoma; PC-3 human prostatic adenocarcinoma (American Type Culture Collection, Manassas, Va., USA); HMEC normal human mammary epithelial cells; HUVEC normal human umbilical vein endothelial cells; and NHBE normal human bronchial epithelial cells (Cambrex Bio Science, Rockland, Me., USA). […] HMEC, HUVEC and NHBE cell lines were cultured in MEGM, EGM-2 and BEGM media, respectively (Cambrex Bio Science, Rockland, Me., USA). The cell lines were plated in 96-well microtitre plate at a density of 2–4×10^3 cells per well. After 16 hours, the cells were treated with various concentrations of Compound 50a or Compound 50b. Stock solutions of Compound 50a and Compound 50b, respectively, were prepared in dimethyl sulfoxide at a concentration of 5 mM. Serial dilutions were prepared in RPMI, 10% FBS and 2% DMSO and then added to the cells. The total DMSO in the cell cultures was 1%. […] The IC50s were determined using a best-fit sigmoidal dose response curve with variable slope.

[4] = tested on: MIA-Paca-2 human pancreatic carcinoma; assay: Cell viability, cellular ATP levels (Vialight HS); assay type: cell-based; conditions: Table 5, MIA-Paca-2, pancreas, tumor, ATP levels 72 h post-treatment
Excerpt: as §1

[5] = tested on: PC-3 human prostatic adenocarcinoma; assay: Cell viability, cellular ATP levels (Vialight HS); assay type: cell-based; conditions: Table 5, PC-3, prostate, tumor, ATP levels 72 h post-treatment
Excerpt: as §1

[6] = tested on: HMEC normal human mammary epithelial cells; assay: Cell viability, cellular ATP levels (Vialight HS); assay type: cell-based; conditions: Table 5, breast epithelial, ATP levels 72 h post-treatment
Excerpt: as §1

[7] = tested on: A549 human non-small cell lung carcinoma; assay: Cell viability, cellular ATP levels (Vialight HS); assay type: cell-based; conditions: Table 5, A549, NSCL-adrenocarinoma, tumor, ATP levels 72 h post-treatment
Excerpt: as §1

[8] = tested on: HUVEC normal human umbilical vein endothelial cells; assay: Cell viability, cellular ATP levels (Vialight HS); assay type: cell-based; conditions: Table 5, ATP levels 72 h post-treatment
Excerpt: as §1

[9] = tested on: NHBE normal human bronchial epithelial cells; assay: Cell viability, cellular ATP levels (Vialight HS); assay type: cell-based; conditions: Table 5, ATP levels 72 h post-treatment
Excerpt: as §1

[10] = Body weight of SW480 tumor-bearing mice; assay type: in vivo, CB17 SCID/SCID female mice; conditions: i.v. once daily for five days; 10 mg/kg (50, 50a, 50b), 50 mg/kg (74a)
Procedure: (§2) SW480 cells were transplanted subcutaneously into the flank of female CB 17 SCID/SCID mice. Each mouse was inoculated with a suspension of 1×10^6 tumor cells per 100 μL on day zero. The following five treatment groups of ten mice each were used: (a) a negative control group treated with intravenous (i.v.) injection of vehicle, (b) a group treated with i.v. injection of a Compound 50, (c) a group treated with i.v. injection of a Compound 50a, (d) a group treated with i.v. injection of Compound 50b, (e) a group treated with i.v. injection of Compound 74a.
(§3) Treatment started on day twelve after SW480 cells transplantation and Compounds 50, 50a, 50b and 74a were administered i.v. once daily for five consecutive days at a dose of 10, 10, 10 and 50 mg/kg, respectively. Compound 50, 50a and 50b were prepared as a working solution of 1.5 mg/mL in a vehicle solution of 20% Cremaphor EL (Sigma, St. Louis, Miss., USA), and 10% Ethanol. Compound 74a was prepared as a working solution of 5 mg/mL in a vehicle solution of 5% Dextrose (Abbot Laboratories, QC, Canada). The negative control groups were treated with vehicle solution of 20% Cremaphor EL and 10% Ethanol alone.
(§4) The mice were weighed and the tumors measured on day 12 and every 2 to 3 days after treatment commenced. Observations continued for 23 days after initial tumor implantation. The changes in body weight and in the calculated tumor volume were plotted (FIGS. 9 and 10). Statistical analysis was performed using GraphPad Prism (GraphPad Software Inc., San Diego, Calif.). Two-way ANOVA was used to determine how the treatment affected tumor growth over time. Following the two-way ANOVA, post-tests were performed using the Benferroni method to determine the statistical difference between the mean tumor-size of the two groups being compared on every day that the tumors were measured.

[11] = tested on: SW480 human colon carcinoma cancer cells; assay: SW480 colon carcinoma xenograft in SCID mice; assay type: in vivo, CB17 SCID/SCID female mice
Procedure: The resultant mice are a model for a human having colon carcinoma cancer.
The SW480 human colon carcinoma cancer cells were maintained in RPMI supplemented with 10% inactivated fetal bovine serum and 1% penicillin-streptomycin-L-Glutamine, under 5% CO2 at 37° C., and passaged twice a week. The cells were grown at a confluency lower than 70% and then collected with Trypsin (Bio-Whittaker, Md., USA). The cells were then centrifuged and washed twice using phosphate buffered saline solution (PBS) and resuspended in PBS at 1×10^6 cells per 100 μl. Viability was examined by staining with Trypan Blue and only flasks with cell viability of greater than 95% were used for in vivo studies.
as §2, §3, §4

[12] = tested on: H1299 human non-small cell lung carcinoma; assay: Cell viability, cellular ATP levels (Vialight HS); assay type: cell-based
Excerpt: as §1
(§5) The selected tumor cell lines included C33A human cervical carcinoma and H1299 human non-small cell lung carcinoma (American Type Culture Collection, Manassas, Va., USA). The cell lines were cultured in RPMI 1640 media supplemented with 10% FBS (Hyclone, Logan, Vt., USA), 100 U/mL penicillin, 100 μg/mL streptomycin and 2 mM L-glutamine (Invitrogen, Carlsbad, Calif., USA). The cell lines were plated in 96-well microtitre plate at a density of 2–4×10^3 cells per well. After 16 hours, the cells were treated with various concentrations of compound 66, 67, 68, 69 and 70, respectively. Stock solutions of compounds 66, 67, 68, 69 and 70 were prepared in dimethyl sulfoxide at a concentration of 5 mM. Serial dilutions were prepared in RPMI, 10% FBS and 2% DMSO and then added to the cells. The total DMSO on the cells was 1%. […] The IC50s were determined using a best-fit sigmoidal dose response curve with variable slope.

[13] = tested on: C33A human cervical carcinoma; assay: Cell viability, cellular ATP levels (Vialight HS); assay type: cell-based; conditions: C-33-A
Excerpt: as §1, §5

[14] = NCI-H1299, Table 6, ATP levels 72 h post-treatment vs untreated cells, read-out: IC50 H1299
[15] = Table 6, ATP levels 72 h post-treatment vs untreated cells, read-out: IC50 C33A
[16] = NCI-H1299, Table 7, cellular ATP levels, read-out: IC50 H1299
[17] = Table 7, cellular ATP levels, read-out: IC50 C33A
[18] = NCI-H1299, Table 8, cellular ATP levels, read-out: IC50 H1299
[19] = Table 8, cellular ATP levels, read-out: IC50 C33A

In the case of `N.N.[Cl][Pt][Cl]` [Cisplatin, reference compound], the Weight loss [1] is reported as 19%.
With `COc1cc2c(cc1C)C(=O)C(O)=C1C(C)(C)C(=O)C=CC12C` (stereo not drawn) [Compound 48, 10-Hydroxy-6-methoxy-1,1,4a,7-tetramethyl-1H,4aH-phenanthrene-2,9-dione] the “Selective cytotoxicity towards cancer cells” value [2] was “selectively cytotoxic towards cancer cells”.
Compound `COc1ccc2c(c1)[C@@]1(C)C=CC(=O)C(C)(C)C1=C(O)C2=O` [Compound 50a] has an IC50 [3] of 0.97 µM, an IC50 [4] of 0.66 µM and an IC50 [5] of 0.37 µM. It also gave an IC50 [6] of 2.3 µM, an IC50 [7] of 0.63 µM and an IC50 [8] of 1.7 µM. For the same compound, the IC50 [9] was 1.2 µM, the “Change in body weight” value [10] was “non-significant change in body weight” and the “Tumor growth compared to vehicle” value ([11]; i.v. 10 mg/kg once a day for five days) was “significant reduction (p<0.001)”. It also gave an IC50 ([12]; NCI-H1299, Table 5, H1299, NSCL-LC carcinoma, tumor, ATP levels 72 h post-treatment vs untreated cells, read-out: IC50) of 0.55 µM and an IC50 ([13]; Table 5, C33A, cervix, tumor, ATP levels 72 h post-treatment, read-out: IC50) of 0.5 µM.
For `CCC1(C)C(=O)C=CC2(C)C1=C(O)C(=O)c1ccc(OC)cc12` (stereo not drawn) [Compound 66], the IC50 [12, 14] was 1.44 µM and the IC50 [13, 15] was 1.55 µM.
In the case of `C=CCC1(C)C(=O)C=CC2(C)C1=C(O)C(=O)c1ccc(OC)cc12` (stereo not drawn) [Compound 67], the IC50 [12, 14] is reported as 0.95 µM and the IC50 [13, 15] is reported as 1.19 µM.
With `COc1ccc2c(c1)C1(C)C=CC(=O)C(C)(Cc3ccccc3)C1=C(O)C2=O` (stereo not drawn) [Compound 68] the IC50 [12, 14] was 2.07 µM and the IC50 [13, 15] was 2.53 µM.
`COC(=O)C1=CC2(C)C(=C(O)C(=O)c3ccc(OC)cc32)C(C)(C)C1=O` (stereo not drawn) [Compound 69] showed an IC50 [12, 14] of 1.36 µM and an IC50 [13, 15] of 0.87 µM.
Compound `COc1ccc2c(c1)C1(C)C=CC(=O)C(C)(C)C1C(=O)C2=O` (stereo not drawn) [Compound 70] has an IC50 [12, 14] of 16.8 µM and an IC50 [13, 15] of 15.9 µM.
`CCOP(=O)(OCC)OC1=C2C(C)(C)C(=O)C=CC2(C)c2cc(OC)ccc2C1=O` (stereo not drawn) [Compound 72] gave an IC50 ([12]; NCI-H1299, read-out: IC50 H1299) of 0.997 µM and an IC50 ([13]; read-out: IC50 C33A) of 0.212 µM.
For `COc1ccc2c(c1)C1(C)C=CC(=O)C(C)(C)C1=C(OP(=O)(OCc1ccccc1)OCc1ccccc1)C2=O` (stereo not drawn) [Compound 73], the IC50 [12, 16] was 1.54 µM and the IC50 [13, 17] was 0.655 µM.
For `COc1ccc2c(c1)[C@@]1(C)C=CC(=O)C(C)(C)C1=C(OP(=O)(O)O)C2=O` [Compound 74a], the “Change in body weight” value [10] was “non-significant change in body weight” and the “Tumor growth compared to vehicle” value ([11]; i.v. 50 mg/kg once daily for five days) was “significantly reduction (p<0.001)”.
`CC1(C)C(=O)C=CC2(C)C1=C(O)C(=O)c1ccc(O)cc12` (stereo not drawn) [Compound 76] gave an IC50 [12, 16] of 0.302 µM and an IC50 [13, 17] of 0.2 µM.
Work on `COc1ccc2c(c1)C1(C)C(=C(O)C2=O)C(C)(C)C(=O)CC1SCC(NC(C)=O)C(=O)O` (stereo not drawn) [Compound 80] yielded an IC50 [12, 18] of 0.208 µM and an IC50 [13, 19] of 0.216 µM.
`COc1ccc2c(c1)C1(C)C(=C(O)C2=O)C(C)(C)C(=O)CC1SCC(NC(=O)CCC(N)C(=O)O)C(=O)NCC(=O)O` (stereo not drawn) [Compound 81] gave an IC50 [12, 18] of 0.155 µM and an IC50 [13, 19] of 0.186 µM.
In the case of `COc1cc([C@@H]2c3cc4c(cc3[C@@H](O[C@@H]3O[C@@H]5CO[C@@H](C)O[C@H]5[C@H](O)[C@H]3O)[C@H]3COC(=O)[C@H]23)OCO4)cc(OC)c1O` [etoposide], the “Selective cytotoxicity towards cancer cells” value [2] is reported as “selectively cytotoxic towards cancer cells”.
